Laboratory results: patent publication US9593122B2, “Substituted pyrazolylpyrazole derivative and use of same as herbicide” (KYOYU AGRI CO., LTD., priority 2013, dated 2017)

Key:
Assay in all cases: Paddy herbicidal activity test
Assay type in all cases: in vivo
Echinochloa crus-galli = details: irrigated paddy pot, treated at 3.5 leaf stage of Echinochloa crus-galli, 30 days
Procedure: (§1) Rice paddy soil was filled into a 1/10000 are pot followed by the addition of suitable amounts of water and chemical fertilizer, kneading, seeding with Echinochloa crus-galli, Monochoria vaginalis and Scirpus juncoides and maintaining in an irrigated state at a water depth of 3 cm.
(§2) Wettable powder of Target Compound (I) shown in Table 1 prepared in compliance with the preparation examples were diluted with a suitable amount of water, rice plants in the 2.0 leaf stage were transplanted during 3.5 leaf stage of Echinochloa crus-galli, and treated by dropping in chemical in the prescribed amount per are using a pipette.
(§3) After treating for 30 days in a glass greenhouse at an average atmospheric temperature of 30° C., the herbicidal efficacy thereof was investigated.
(§4) Evaluation of herbicidal efficacy was carried out by comparing growth inhibition rate (%) with an untreated group, while evaluation of phytotoxicity was carried out by comparing growth inhibition rate (%) with the state of a complete eradication group, and were evaluated at 11 levels indicated below.

Monochoria vaginalis = details: irrigated paddy pot, 30 days
Procedure: as §1, §2, §3, §4

Scirpus juncoides = details: irrigated paddy pot, 30 days
Procedure: as §1, §2, §3, §4

Structure (SMILES) | Echinochloa crus-galli herbicidal efficacy (growth inhibition level) (Echinochloa crus-galli; 1g a.i./10a) | Echinochloa crus-galli herbicidal efficacy (growth inhibition level) (Echinochloa crus-galli; 5g a.i./10a) | Monochoria vaginalis herbicidal efficacy (growth inhibition level) (Monochoria vaginalis; 1g a.i./10a) | Monochoria vaginalis herbicidal efficacy (growth inhibition level) (Monochoria vaginalis; 5g a.i./10a) | Scirpus juncoides herbicidal efficacy (growth inhibition level) (Scirpus juncoides; 1g a.i./10a) | Scirpus juncoides herbicidal efficacy (growth inhibition level) (Scirpus juncoides; 5g a.i./10a)
C=CCCNc1c(C#N)cnn1-c1nn2c(c1Br)CCCC2 [Compound 42] | 8 (8: 80% to less than 90%) | 9 (9: 90% to less than 100%) | 7 (7: 70% to less than 80%) | 8 (8: 80% to less than 90%) | 8 (8: 80% to less than 90%) | 8 (8: 80% to less than 90%)
N#Cc1cnn(-c2nn3c(c2Br)CCCC3)c1NCC(Cl)=CCl (mixture of isomers) [Compound 46] | 7 (7: 70% to less than 80%) | 8 (8: 80% to less than 90%) | 7 (7: 70% to less than 80%) | 8 (8: 80% to less than 90%) | 7 (7: 70% to less than 80%) | 8 (8: 80% to less than 90%)
C=CCN(C(=O)C(F)(F)F)c1c([N+](=O)[O-])cnn1-c1nn2c(c1Cl)CCCC2 [Compound 36] | 9 (9: 90% to less than 100%) | 10 (10: 100%) | 8 (8: 80% to less than 90%) | 9 (9: 90% to less than 100%) | 8 (8: 80% to less than 90%) | 9 (9: 90% to less than 100%)
CC=CCNc1c(C#N)cnn1-c1nn2c(c1Br)CCCC2 (mixture of isomers) [Compound 47] | 9 (9: 90% to less than 100%) | 10 (10: 100%) | 8 (8: 80% to less than 90%) | 9 (9: 90% to less than 100%) | 7 (7: 70% to less than 80%) | 8 (8: 80% to less than 90%)
N#Cc1cnn(-c2nn3c(c2Cl)CCCC3)c1NCC(Cl)=CCl (mixture of isomers) [Compound 11] | 8 (8: 80% to less than 90%) | 9 (9: 90% to less than 100%) | 8 (8: 80% to less than 90%) | 9 (9: 90% to less than 100%) | 7 (7: 70% to less than 80%) | 8 (8: 80% to less than 90%)
N#Cc1cnn(-c2nn3c(c2Cl)CCCC3)c1NC/C=C\Cl [Compound 7] | 9 (9: 90% to less than 100%) | 9 (9: 90% to less than 100%) | 9 (9: 90% to less than 100%) | 9 (9: 90% to less than 100%) | 7 (7: 70% to less than 80%) | 8 (8: 80% to less than 90%)
CC(C)=CCNc1c([N+](=O)[O-])cnn1-c1nn2c(c1Cl)CCCC2 [Compound 35] | 9 (9: 90% to less than 100%) | 9 (9: 90% to less than 100%) | 9 (9: 90% to less than 100%) | 10 (10: 100%) | 8 (8: 80% to less than 90%) | 10 (10: 100%)
C=C(C)CNc1c([N+](=O)[O-])cnn1-c1nn2c(c1Cl)CCCC2 [Compound 31] | 9 (9: 90% to less than 100%) | 9 (9: 90% to less than 100%) | 9 (9: 90% to less than 100%) | 9 (9: 90% to less than 100%) | 7 (7: 70% to less than 80%) | 8 (8: 80% to less than 90%)
N#Cc1cnn(-c2nn3c(c2Br)CCCC3)c1N(C/C=C\Cl)C(=O)C(F)(F)F [Compound 53] | 9 (9: 90% to less than 100%) | 10 (10: 100%) | 7 (7: 70% to less than 80%) | 8 (8: 80% to less than 90%) | 7 (7: 70% to less than 80%) | 8 (8: 80% to less than 90%)
N#Cc1cnn(-c2nn3c(c2Br)CCCC3)c1NC/C=C\Cl [Compound 45] | 9 (9: 90% to less than 100%) | 9 (9: 90% to less than 100%) | 9 (9: 90% to less than 100%) | 9 (9: 90% to less than 100%) | 9 (9: 90% to less than 100%) | 9 (9: 90% to less than 100%)
C=CCN(C(=O)C(F)(F)F)c1c(C#N)cnn1-c1nn2c(c1Br)CCCC2 [Compound 49] | 8 (8: 80% to less than 90%) | 9 (9: 90% to less than 100%) | 7 (7: 70% to less than 80%) | 9 (9: 90% to less than 100%) | 8 (8: 80% to less than 90%) | 9 (9: 90% to less than 100%)
CC(C)=CCNc1c(C#N)cnn1-c1nn2c(c1Cl)CCCC2 [Compound 13] | 9 (9: 90% to less than 100%) | 10 (10: 100%) | 8 (8: 80% to less than 90%) | 9 (9: 90% to less than 100%) | 8 (8: 80% to less than 90%) | 8 (8: 80% to less than 90%)
C=C(C)CN(C(=O)C(F)(F)F)c1c(C#N)cnn1-c1nn2c(c1Cl)CCCC2 [Compound 19] | 9 (9: 90% to less than 100%) | 10 (10: 100%) | 9 (9: 90% to less than 100%) | 9 (9: 90% to less than 100%) | 7 (7: 70% to less than 80%) | 8 (8: 80% to less than 90%)
C=CCCN(C(=O)C(F)(F)F)c1c(C#N)cnn1-c1nn2c(c1Cl)CCCC2 [Compound 18] | 9 (9: 90% to less than 100%) | 9 (9: 90% to less than 100%) | 8 (8: 80% to less than 90%) | 9 (9: 90% to less than 100%) | 7 (7: 70% to less than 80%) | 8 (8: 80% to less than 90%)
CC=CCNc1c([N+](=O)[O-])cnn1-c1nn2c(c1Cl)CCCC2 (mixture of isomers) [Compound 34] | 9 (9: 90% to less than 100%) | 9 (9: 90% to less than 100%) | 9 (9: 90% to less than 100%) | 9 (9: 90% to less than 100%) | 8 (8: 80% to less than 90%) | 8 (8: 80% to less than 90%)
